# Patent US12428360B2, “Abating unwanted emulsion polymerization during extractive distillation of conjugated diene monomers” (ECOLAB USA INC., priority 2022, dated 2025)
# Experiment: Isoprene polymerization test at 95° C. in heptane (heptane phase, turbidity method)
# Experimental: The commercial isoprene was passed through an alumina column to remove stabilizer 4-tert-butylcatechol. A 100 mL jar was charged with 0.2 g active polymerization inhibitor, 40 mL heptane, 40 mL DMF, and a stir bar. The above mixture was stirred at room temperature for 30 minutes and settled for 10 minutes.
# Heptane phase: A 100 mL jar was charged with 5.0 mL top layer of previous settled two layers' mixture, 1 mL AIBN (0.0004 g/mL) solution, isoprene 50 g. Hexane was added to make a total weight of 100 g solution. About 13 ml of the above mixture was added to 12 pressure tubes with a stir bar and heated to 95° C. After 30 minutes, and every 30 minutes thereafter, two tubes were retrieved from the block and the polymerization reaction was quenched by cooling in an ice bath. The cooled polymer solutions were immediately diluted with toluene. The soluble polymer in the liquid was determined by turbidity method. Results can be seen in FIG. 2. The data used to generate the trend lines in FIG. 2 can be seen in Table 2.
compound,measurement,setting,value
"CCC(C)Nc1ccc(NC(C)CC)cc1 (stereo not shown) [PDA, di-sec-butyl-4,4′-phenylenediamine]",polymerization growth in Heptane phase (polyisoprene),"Time 0, AIBN initiator",0 w/w %
same,polymerization growth in Heptane phase (polyisoprene),"Time 30 (minutes per method), AIBN initiator",0.10% w/w %
same,polymerization growth in Heptane phase (polyisoprene),"Time 60 (minutes per method), AIBN initiator",0.24% w/w %
same,polymerization growth in Heptane phase (polyisoprene),"Time 90 (minutes per method), AIBN initiator",0.45% w/w %
same,polymerization growth in Heptane phase (polyisoprene),"Time 120 (minutes per method), AIBN initiator",0.83% w/w %
same,polymerization growth in Heptane phase (polyisoprene),"Time 180 (minutes per method), AIBN initiator",1.05% w/w %
same,polymerization growth in Heptane phase (polyisoprene),"Time 240 (minutes per method), AIBN initiator",1.20% w/w %
